Test results: ChEMBL document CHEMBL1133206, “Antifungal rapamycin analogues with reduced immunosuppressive activity” (Bioorg Med Chem Lett, 2000)
Converted amounts (≈) assume the structure as drawn.

Key:
[1] = system: Candida albicans; assay: Compound was screened in vitro for antifungal activity against Candida albicans (CA 38247); assay type: functional
[2] = system: Candida albicans; assay: In vitro for antifungal activity against Candida albicans (CA 579a); assay type: functional
[3] = system: Pichia kudriavzevii; assay: In vitro antifungal activity against Candida krusei (CK 28838); assay type: functional
[4] = system: Candida tropicalis; assay: In vitro antifungal activity against Candida tropicalis (CT 750); assay type: functional
[5] = system: Candida albicans; assay: In vitro antifungal activity against Candida albicans (CA 10231); assay type: functional
[6] = system: Candida albicans; assay: Compound was screened in vitro for antifungal activity against Candida albicans (CA 442); assay type: functional
[7] = system: Candida albicans; assay: Compound was screened in vitro for antifungal activity against Candida albicans (CA 62376); assay type: functional
[8] = species on record: Homo sapiens; assay: Inhibitory activity against human concanavalin-A proliferation assay; assay type: functional
[9] = system: Candida albicans; assay: In vitro antifungal activity against Candida albicans (CA 62376); Weak; assay type: functional, organism-based
[10] = system: Candida albicans; assay: In vitro antifungal activity against Candida albicans (CA 38247); Weak; assay type: functional, organism-based
[11] = biological target: Peptidyl-prolyl cis-trans isomerase FKBP1A (Homo sapiens, UniProt P62942); assay: The compound was tested for binding affinity to FK506 binding protein 12 using Rapamycin as control, with an ascomycin conjugate of alkaline phosphatase in a competition binding assay
[12] = system: Candida albicans; assay: In vitro antifungal activity against Candida albicans (CA 442); Weak; assay type: functional, organism-based
[13] = system: Aspergillus niger; assay: In vitro antifungal activity at a minimum inhibitory concentration (~100 ug/mL) against Aspergillus niger; Not affected; assay type: functional
[14] = system: Candida albicans; assay: In vitro antifungal activity against […] (CA 34140); Not affected.; assay type: functional
[15] = system: Nakaseomyces glabratus; assay: In vitro antifungal activity against Torulopsis glabrata (TG 15545); assay type: functional
[16] = Aspergillus niger, read-out: MIC

Peptidyl-prolyl cis-trans isomerase FKBP1A, sequence (P62942 whole entry): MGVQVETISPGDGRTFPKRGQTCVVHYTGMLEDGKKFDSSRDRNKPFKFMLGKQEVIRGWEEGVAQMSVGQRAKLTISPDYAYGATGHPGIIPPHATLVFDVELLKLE

| SMILES | MIC [1] | MIC [2] | MIC [3] | MIC [4] | MIC [5] | MIC [6] | MIC [7] | IC50 [8] | MIC [9] | MIC [10] | IC50 [11] | MIC [12] | MIC [13, 16] | MIC [14] | MIC [15] | MIC [13] |
| --- | --- | --- | --- | --- | --- | --- | --- | --- | --- | --- | --- | --- | --- | --- | --- | --- |
| CO[C@H]1C[C@@H]2CC[C@@H](C)[C@@](O)(O2)C(=O)C(=O)N2CCCC[C@H]2C(=O)O[C@H]([C@H](C)C[C@@H]2CC[C@@H](OC(=O)N3CCCCC3)[C@H](OC)C2)CC(=O)[C@H](C)/C=C(\C)[C@@H](O)[C@@H](OC)C(=O)[C@H](C)C[C@H](C)CCCC/C=C/1C | > 100 µg/mL | > 100 µg/mL | > 100 µg/mL | > 100 µg/mL | > 100 µg/mL | > 100 µg/mL | – | – | – | – | – | – | – | – | – | – |
| CO[C@H]1C[C@@H]2CC[C@@H](C)[C@@](O)(O2)C(=O)C(=O)N2CCCC[C@H]2C(=O)O[C@H]([C@H](C)C[C@@H]2CCC(O)[C@H](OC)C2)CC(=O)[C@H](C)/C=C(\C)[C@@H](O)[C@@H](OC)C(=O)[C@H](C)C[C@H](C)CCCC/C=C/1C (single isomer, unassigned; 2) | 1.56 µg/mL (≈ 1.7 µM) | 1.56 µg/mL (≈ 1.7 µM) | 1.56 µg/mL (≈ 1.7 µM) | 1.56 µg/mL (≈ 1.7 µM) | 1.56 µg/mL (≈ 1.7 µM) | 1.56 µg/mL (≈ 1.7 µM) | 1.56 µg/mL (≈ 1.7 µM) | 1590 nM | – | – | – | – | – | – | – | – |
| CO[C@H]1C[C@@H]2CC[C@@H](C)[C@@](O)(O2)C(=O)C(=O)N2CCCC[C@H]2C(=O)O[C@H]([C@H](C)C[C@@H]2CC[C@@H](OC(=O)N3CCNCC3)[C@H](OC)C2)CC(=O)[C@H](C)/C=C(\C)[C@@H](O)[C@@H](OC)C(=O)[C@H](C)C[C@H](C)CCCC/C=C/1C | > 100 µg/mL | > 100 µg/mL | > 100 µg/mL | > 100 µg/mL | > 100 µg/mL | > 100 µg/mL | – | – | – | – | – | – | – | – | – | – |
| CO[C@@H]1C[C@H](C[C@@H](C)[C@@H]2CC(=O)[C@H](C)/C=C(\C)[C@@H](O)[C@@H](OC)C(=O)[C@H](C)C[C@H](C)/C=C/C=C/C=C(\C)[C@@H](N(O)C(=O)Oc3ccccc3)C[C@@H]3CC[C@@H](C)[C@@](O)(O3)C(=O)C(=O)N3CCCC[C@H]3C(=O)O2)CC[C@H]1O | – | 25 µg/mL (≈ 24.1 µM) | 1.56 µg/mL (≈ 1.51 µM) | 12.5 µg/mL (≈ 12.1 µM) | 12.5 µg/mL (≈ 12.1 µM) | – | – | 1100 nM | Weak | Weak | 2.1 nM | Weak | ~100 µg/mL (≈ 96.6 µM) | ~100 µg/mL (≈ 96.6 µM) | 1.56 µg/mL (≈ 1.51 µM) | – |
| CO[C@H]1C[C@@H]2CC[C@@H](C)[C@@](O)(O2)C(=O)C(=O)N2CCCC[C@H]2C(=O)O[C@H]([C@H](C)C[C@@H]2CC[C@@H](OC(=O)N(C)OC)[C@H](OC)C2)CC(=O)[C@H](C)/C=C(\C)[C@@H](O)[C@@H](OC)C(=O)[C@H](C)C[C@H](C)CCCC/C=C/1C | – | > 100 µg/mL | > 100 µg/mL | > 100 µg/mL | 50 µg/mL (≈ 49.7 µM) | – | – | 2470 nM | – | – | > 1000 nM | – | – | – | – | – |
| CO[C@H]1C[C@@H]2CC[C@@H](C)[C@@](O)(O2)C(=O)C(=O)N2CCCC[C@H]2C(=O)O[C@H]([C@H](C)C[C@@H]2CCC(O)[C@H](OC)C2)CC(=O)[C@H](C)/C=C(\C)[C@@H](O)[C@@H](OC)C(=O)[C@H](C)C[C@H](C)CCCC/C=C/1C (single isomer, unassigned; 3) | 1.56 µg/mL (≈ 1.7 µM) | 1.56 µg/mL (≈ 1.7 µM) | 0.78 µg/mL (≈ 0.849 µM) | 1.56 µg/mL (≈ 1.7 µM) | 1.56 µg/mL (≈ 1.7 µM) | 1.56 µg/mL (≈ 1.7 µM) | 0.78 µg/mL (≈ 0.849 µM) | 3400 nM | – | – | – | – | – | – | – | – |
| CO[C@@H]1C[C@H](C[C@@H](C)[C@@H]2CC(=O)[C@H](C)/C=C(\C)[C@@H](O)[C@@H](OC)C(=O)[C@H](C)C[C@H](C)/C=C/C=C/C=C(\C)[C@H](N(O)C(=O)N3CCCCC3)C[C@@H]3CC[C@@H](C)[C@@](O)(O3)C(=O)C(=O)N3CCCC[C@H]3C(=O)O2)CC[C@H]1O | – | 1.56 µg/mL (≈ 1.52 µM) | 1.56 µg/mL (≈ 1.52 µM) | 6.25 µg/mL (≈ 6.09 µM) | 1.56 µg/mL (≈ 1.52 µM) | – | – | 786 nM | Weak | Weak | – | Weak | ~100 µg/mL (≈ 97.4 µM) | ~100 µg/mL (≈ 97.4 µM) | 1.56 µg/mL (≈ 1.52 µM) | – |
| CCCOC(=O)N(O)[C@@H]1C[C@@H]2CC[C@@H](C)[C@@](O)(O2)C(=O)C(=O)N2CCCC[C@H]2C(=O)O[C@H]([C@H](C)C[C@@H]2CC[C@@H](O)[C@H](OC)C2)CC(=O)[C@H](C)/C=C(\C)[C@@H](O)[C@@H](OC)C(=O)[C@H](C)C[C@H](C)/C=C/C=C/C=C/1C | – | 3.12 µg/mL (≈ 3.12 µM) | 0.78 µg/mL (≈ 0.779 µM) | 1.56 µg/mL (≈ 1.56 µM) | 1.56 µg/mL (≈ 1.56 µM) | – | – | 288 nM | Weak | Weak | – | Weak | ~100 µg/mL (≈ 99.9 µM) | ~100 µg/mL (≈ 99.9 µM) | 1.56 µg/mL (≈ 1.56 µM) | – |
| CO[C@@H]1C[C@H](C[C@@H](C)[C@@H]2CC(=O)[C@H](C)/C=C(\C)[C@@H](O)[C@@H](OC)C(=O)[C@H](C)C[C@H](C)/C=C/C=C/C=C(\C)[C@@H](N(O)C(N)=O)C[C@@H]3CC[C@@H](C)[C@@](O)(O3)C(=O)C(=O)N3CCCC[C@H]3C(=O)O2)CC[C@H]1O | – | 100 µg/mL (≈ 104 µM) | 3.12 µg/mL (≈ 3.26 µM) | 12.5 µg/mL (≈ 13 µM) | 100 µg/mL (≈ 104 µM) | – | – | 758 nM | Weak | Weak | – | Weak | ~100 µg/mL (≈ 104 µM) | ~100 µg/mL (≈ 104 µM) | 1.56 µg/mL (≈ 1.63 µM) | – |
| CO[C@@H]1C[C@H](C[C@@H](C)[C@@H]2CC(=O)[C@H](C)/C=C(\C)[C@@H](O)[C@@H](OC)C(=O)[C@H](C)C[C@H](C)/C=C/C=C/C=C(\C)[C@H](N(O)C(=O)OC(C)C)C[C@@H]3CC[C@@H](C)[C@@](O)(O3)C(=O)C(=O)N3CCCC[C@H]3C(=O)O2)CC[C@H]1O | – | 12.5 µg/mL (≈ 12.5 µM) | 0.78 µg/mL (≈ 0.779 µM) | 25 µg/mL (≈ 25 µM) | 6.25 µg/mL (≈ 6.24 µM) | – | – | 220 nM | Weak | Weak | – | Weak | ~100 µg/mL (≈ 99.9 µM) | ~100 µg/mL (≈ 99.9 µM) | 0.78 µg/mL (≈ 0.779 µM) | – |
| CO[C@@H]1C[C@H](C[C@@H](C)[C@@H]2CC(=O)[C@H](C)/C=C(\C)[C@@H](O)[C@@H](OC)C(=O)[C@H](C)C[C@H](C)/C=C/C=C/C=C(\C)[C@@H](N(O)C(=O)OCC(C)C)C[C@@H]3CC[C@@H](C)[C@@](O)(O3)C(=O)C(=O)N3CCCC[C@H]3C(=O)O2)CC[C@H]1O | – | 12.5 µg/mL (≈ 12.3 µM) | 0.78 µg/mL (≈ 0.768 µM) | 3.12 µg/mL (≈ 3.07 µM) | 3.12 µg/mL (≈ 3.07 µM) | – | – | 760 nM | Weak | Weak | – | Weak | ~100 µg/mL (≈ 98.5 µM) | ~100 µg/mL (≈ 98.5 µM) | 0.78 µg/mL (≈ 0.768 µM) | – |
| CO[C@H]1C[C@@H]2CC[C@@H](C)[C@@](O)(O2)C(=O)C(=O)N2CCCC[C@H]2C(=O)O[C@H]([C@H](C)C[C@@H]2CC[C@H](n3cnnn3)[C@H](OC)C2)CC(=O)[C@H](C)/C=C(\C)[C@@H](O)[C@@H](OC)C(=O)[C@H](C)C[C@H](C)CCCC/C=C/1C | > 100 µg/mL | > 100 µg/mL | > 100 µg/mL | > 100 µg/mL | > 100 µg/mL | > 100 µg/mL | > 100 µg/mL | – | – | – | – | – | – | – | – | – |
| CO[C@@H]1C[C@H](C[C@@H](C)[C@@H]2CC(=O)[C@H](C)/C=C(\C)[C@@H](O)[C@@H](OC)C(=O)[C@H](C)C[C@H](C)/C=C/C=C/C=C(\C)[C@H](N(O)C(N)=O)C[C@@H]3CC[C@@H](C)[C@@](O)(O3)C(=O)C(=O)N3CCCC[C@H]3C(=O)O2)CC[C@H]1O | – | 25 µg/mL (≈ 26.1 µM) | 3.12 µg/mL (≈ 3.26 µM) | 3.12 µg/mL (≈ 3.26 µM) | 12.5 µg/mL (≈ 13 µM) | – | – | 379 nM | Weak | Weak | – | Weak | ~100 µg/mL (≈ 104 µM) | ~100 µg/mL (≈ 104 µM) | 1.56 µg/mL (≈ 1.63 µM) | ~100 µg/mL (≈ 104 µM) |
